Target: T1, TRPV3 (Mus musculus, UniProt Q8K424)
T1 construct: expressed in transfected cells; host or cells: HEK 293T
T1 sequence (Q8K424 1-791): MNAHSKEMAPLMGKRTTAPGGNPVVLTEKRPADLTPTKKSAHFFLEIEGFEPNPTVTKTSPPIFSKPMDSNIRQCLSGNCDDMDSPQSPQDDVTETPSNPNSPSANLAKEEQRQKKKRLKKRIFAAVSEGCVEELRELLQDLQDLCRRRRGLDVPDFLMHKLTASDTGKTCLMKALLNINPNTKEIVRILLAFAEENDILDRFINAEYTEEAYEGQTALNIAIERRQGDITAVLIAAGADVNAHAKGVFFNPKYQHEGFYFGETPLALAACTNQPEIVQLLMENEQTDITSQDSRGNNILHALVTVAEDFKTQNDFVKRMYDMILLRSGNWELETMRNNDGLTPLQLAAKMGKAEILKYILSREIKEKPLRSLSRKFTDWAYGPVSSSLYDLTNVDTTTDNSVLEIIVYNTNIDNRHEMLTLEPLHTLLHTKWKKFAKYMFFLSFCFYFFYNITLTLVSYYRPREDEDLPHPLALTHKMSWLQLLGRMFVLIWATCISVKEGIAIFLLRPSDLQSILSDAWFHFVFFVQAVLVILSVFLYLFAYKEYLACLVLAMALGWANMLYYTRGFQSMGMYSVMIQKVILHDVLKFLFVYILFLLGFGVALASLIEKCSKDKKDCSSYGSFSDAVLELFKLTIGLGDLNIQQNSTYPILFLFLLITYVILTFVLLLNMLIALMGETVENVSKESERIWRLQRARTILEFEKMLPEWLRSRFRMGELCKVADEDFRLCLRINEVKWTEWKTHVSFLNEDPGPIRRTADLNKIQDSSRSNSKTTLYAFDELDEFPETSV
Assay: Whole-cell recording of carvacrol-evoked TRPV3 currents in HEK 293T cells
Format: cell-based
Text: Conventional whole-cell and excised patch-clamp recording methods were used. For the recombinant expressing system, green fluorescent EGFP was used as a surface marker for gene expression. Recording pipettes were pulled from borosilicate glass capillaries (World Precision Instruments) and fire-polished to a resistance between 2 and 4 MΩ when filled with internal solution containing (in mM) 140 CsCl, 2.0 MgCl2, 5 EGTA, and 10 HEPES, pH 7.4 (adjusted with CsOH). Bath solution contained (in mM): 140 NaCl, 5 KCl, 3 EGTA, and 10 HEPES, pH 7.4 adjusted with NaOH. For recordings in keratinocytes, the bath saline consisted of (in mM) 140 NaCl, 5 KCl, 2 MgCl2, 2 CaCl2, 10 glucoses, and 10 HEPES, pH 7.4 adjusted with NaOH, and the pipette solution contained (in mM) 140 CsCl, 5 EGTA, and 10 HEPES, pH 7.3 adjusted with CsOH. […] For a subset of recordings, currents were amplified using an Axopatch 200B amplifier (Molecular Devices, Sunnyvale, CA) and recorded through a BNC-2090/MIO acquisition system (National Instruments, Austin, TX) using QStudio developed by Dr. Feng Qin at State University of New York at Buffalo. […] As determined by the conductance tests, the solution around a patch under study was fully controlled by the application of a flow rate of 100 μl/min or greater. […]

Hill coefficient nH (carvacrol-evoked): 2.1 ± 0.41
Compound: CCCCOc1ccc(C(=O)CCN2CCCCC2)cc1 [dyclonine]
IC50 (500 μM carvacrol, after sensitization by 300 μM 2-APB, –60 mV, read-out: IC50 for inhibition of carvacrol-evoked TRPV3 currents): 3.5 ± 0.34 µM

From article PMC8112869, “Therapeutic inhibition of keratinocyte TRPV3 sensory channel by local anesthetic dyclonine” (eLife, 2021)
